Consider two compounds from patent publication US20260167679A1, “FUSION PROTEIN TARGETING MITOCHONDRIA, METHOD OF MAKING AND USE THEREOF” (UNIVERSITY OF ROCHESTER, priority 2020, published 2026).

Holding throughout (type): in vivo, Caenorhabditis elegans
The subject of test [1] is C. elegans. In words: Hypoxia and reoxygenation with hypoxic preconditioning. The following applies: +ATR, baseline survival, n=12 independent experiments. The method, then:
(§1) Experiments were carried out using a hypoxic chamber (Coy Laboratory Products, 5%/95% H2/N2 gas, palladium catalyst) at 26° C. with 50-100 animals per plate. O2 was <0.01%. Hypoxic preconditioning (PC) duration was 4 h, and control animals were incubated at 26° C. in room air for the same time. 1 Hz illumination (Quantum LED, 0.02 mW/mm^2) was carried out during PC period or during the hypoxic period. Hypoxic exposure was for 18.5, 21 h after PC. Twenty-four hours after hypoxia exposure, animals that were moving or those that moved in response to a light touch to the head were scored as alive. Data from days where PC was at least 15% effective for both +ATR and −ATR were used. Animals supplemented with ATR were allowed to lay eggs onto plates with no ATR that were subsequently used for HR experiments to minimize confounding effects of ATR. ATR from the parent animal was sufficient to provide active mtON in progeny as tested by the azide toxin assay described above. […] FCCP dissolved in ethanol was deposited onto seeded NGM plates.

Test [2] has as its system C. elegans. The test can be described thus: Lifespan of mtON-expressing worms. From the text:
Light treatment began at day 1 of adulthood for all experiments, a, Survival curves of mtON-expressing animals (extrachromosomal array). […] One-way ANOVA with Tukey's test; n=30 animals for day 4 conditions and 40 animals for day 10. […] The dotted arrow represents the molecular mechanisms to be investigated that link Δψm to aged physiology.
A) survival curve with the same conditions as FIG. 15B, but with light intensity (0.005 mW/cm2) below the threshold for mtON activation (0.01 mW/cm2). […] B) Survival curves of mtON-expressing animals versus mtON-expressing animals in a long-lived genetic background containing a constitutively active AMPK mutation.
Strain APW32 expresses mtON as an extrachromosomal array (mtON ext. chr. array), and strain APW273 expresses mtON in single copy through CRISPR/Cas9 genome integration (mtON CRISPR). See methods section for genotype details. Light intensity was varied to maintain temperature as best as possible, and proximal temperature readings directly adjacent to assay plates are reported to show local temperature variability from different incubators and from different light sources. All incubators were set to 20° C.

The test system of test [3] is C. elegans. In words: ETC inhibitor assays, survival of animals. The method, then: Experiments were performed on at least three separate days, using 15-100 young adult animals per plate. Seeded plates were supplemented with rotenone (50 μM final concentration), antimycin A (50 μM final concentration), or oligomycin A (31 μM final concentration) 24 h before animals were transferred onto them. For azide toxicity, animals were placed in M9 buffer with 250 mM azide. Control plates were kept in the dark, and experimental plates were exposed to 1 Hz light (Quantum LED, 0.02 mW/mm^2) for the duration of the experiment. For all toxins, animals that were moving or those that moved in response to a light touch to the head were scored as alive. For rotenone, surviving animals were scored after 5 h. For antimycin A, animals were scored 16 h after exposure. For azide, animals were exposed for 1 h in M9 and allowed to recover for 1 h on a seeded culture plate and then survival was scored. Azide experimental plates were exposed to light (XCite LED, 0.19 mW/mm^2) for the duration of azide treatment and recovery. […]. For oligomycin A, animals were scored 18 h after exposure.
as §1

For the compound `CC1=C(/C=C/C(C)=C/C=C/C(C)=C/C=O)C(C)(C)CCC1` [ATR, all trans-retinal, reference compound], the “survival after hypoxia and reoxygenation (baseline)” value in test [1] is reported as 49.7+/−20.3%. Further, in test [2] (ATR and light in wild-type animals), the lifespan result was “did not affect lifespan”. Besides, the lifespan or physiology result in test [2] (ATR supplementation alone) is recorded as “does not affect lifespan or physiology”. In addition, the survival result is “protective” in test [3] (50 μM rotenone for 5 hours, +ATR −light (ATR alone)) and 27.5% in test [3] (azide toxin assay, progeny of ATR-supplemented parents, +ATR −light).
With `N#CC(C#N)=NNc1ccc(OC(F)(F)F)cc1` [FCCP, carbonyl cyanide p-(trifluoromethoxy)phenylhydrazone, reference compound], the lifespan entry in test [2] (FCCP on its own) is listed as “no effect on lifespan”.
